Measured values taken from US20260176313A1, “TGF-BETA-1 VACCINE” (IO BIOTECH APS, priority 2022, published 2026).

Legend:
[1] = tested on: PBMCs from healthy donors; test: In vitro IFNγ ELISPOT screening for immune responses to TGFb-1 peptides; assay type: cell-based, human; details: for Positive Donors (out of 14): donors with significant response: Fisher test <0.01, ratio peptide:control >2, background subtracted spots >25; for Median Spots: median of background subtracted average spots for each donor across all 14 donors, 7 days after peptide stimulation
Experimental: FIG. 6. IFNγ ELISPOT identifies strong and frequent immune responses. Immune responses to TGFb-1 peptides were identified in PBMCs from 14 healthy donors. PBMCs were stimulated with the indicated TGFb-1 peptides and responses were analyzed after seven days by IFNγ ELISPOT. Significant responses (*) were defined by a Fisher exact P value<0.01, a ratio of peptide to control spots>2, and background subtracted spots>25. Peptides that elicited responses in the greatest number of donors were subsequently tested for the specificity of the response to TGFb-1.
(§1) For in vitro ELISPOT, peripheral blood […] cells (PBMCs) from healthy donors were pulsed with 20 μM of TGFb-derived peptides and 20 U/ml IL-2 in 24-well plates for 7 days before being used in an ELISPOT assay. The cells were placed in 96-well nitrocellulose ELISPOT plates (MultiScreen IP Filter Plate, MSIPN4W50; Millipore) pre-coated with interferon gamma (IFNγ) capture antibody (Mabtech). TGFb peptides are added to a final concentration of 5 μM, control stimulation (DMSO) added to control wells and plates are incubated at 37° C. for 16-20 hours. After the incubation the cells were washed off and secondary biotinylated Ab (Mabtech) was added for 2 hours at room temperature. Unbound secondary antibody was washed off and streptavidin conjugated alkaline phosphatase (AP) (Mabtech) was added for 1 hour at room temperature. Unbound conjugated enzyme was washed off and the assay was developed by adding BCIP/NBT substrate (Mabtech). Developed ELISPOT plates were analysed on CTL ImmunoSpot S6 Ultimate-V analyzer using Immunospot software v5.1.
(§2) In order to identify whether the low homology peptides selected based on sequence alignment were able to elicit immune responses in humans, the IFNγ ELISPOT assay was used. PBMCs from a total of 14 healthy donors were used to screen for immune responses. PBMCs were exposed to each peptide individually to induce a peptide-specific immune response and proliferation of peptide-specific T cells. Seven days later, the frequency of peptide-specific T cells were assayed by IFNγ ELISPOT. IFNγ ELISPOT identified several peptides that elicited strong (number of spots) and frequent (number of donors) immune responses, as shown in FIG. 6. Five peptides were selected on this basis (see Table 4). These five peptides were subsequently assayed for TGFb-1-selectivity by assaying for cross-reactive immune responses to TGFb-2 and TGFb-3 peptides in the IFNγ ELISPOT assay, as shown in FIG. 7 and FIG. 8.

[2] = tested on: PBMCs from healthy donors; test: IFNγ ELISPOT recall assay for cross-reactive responses to homologous TGFb-2 and TGFb-3 peptides; assay type: cell-based, human; details: for TGFb-1 selectivity / cross-reactivity of IFNγ ELISPOT immune response to homologous TGFb-2 and TGFb-3 peptides: donor PBMCs stimulated with TGFb-1 peptide, recall after seven days
Experimental: FIG. 7A-B. IFNγ ELISPOT to identify TGFb-1-selective immune responses. Donor PBMCs were stimulated with the indicated TGFb-1 peptides (Pep01-1, Pep04-1, Pep05-1, Pep08-1, Pep09-1 and Pep12-1) and after seven days were tested for a recall response by IFNγ ELISPOT assay using the same TGFb-1 peptide, or homologous TGFb-2 peptide (i.e. Pep01-2, Pep04-2, Pep05-2, Pep08-2, Pep09-2 or Pep12-2) or TGFb-3 peptide (i.e. Pep01-3, Pep04-3, Pep05-3, Pep08-3, Pep09-3 or Pep12-3). The highly homologous peptides Pep12-1, Pep12-2 and Pep12-3 were included as positive controls for detecting cross-reactive immune responses to TGFb-2 and TGFb-3. In FIG. 7A, for each peptide tested, boxplots on the left hand side correspond to responses using the same TGFb-1 peptide, boxplots in the middle correspond to responses using homologous TGFb-2 peptides and boxplots on the right hand side correspond to responses using homologous TGFb-3 peptides.
FIG. 8. IFNγ ELISPOT to identify TGFb-1-selective immune responses. The same data shown in FIG. 7 were plotted to show responses for individual peptides and donors. […] Significant responses (*) were defined by a Fisher exact P value<0.01, a ratio of peptide to control spots>2, and background subtracted spots>25.
as §1, §2

[3] = tested on: splenocytes loaded with the assay peptide (SLP1_Ib); test: In vivo cytotoxicity assay; parameters: species or system mouse; details: analysed 18 hours after i.v. injection of labeled splenocytes
Experimental: FIG. 11. TGFb-1 vaccine promotes targeted in vivo cell killing. An in vivo cytotoxicity assay was used to compare cell killing in mice vaccinated with SLP1 versus the class I epitope SLP1_Ib (SIYMFFNT). Vaccinated mice (duplicates) were injected with differentially labeled splenocytes loaded with the assay peptide (SLP1_Ib) or a control peptide. Cell killing was determined by comparing the recovery of the splenocytes using control-peptide-loaded splenocytes as an internal control for cell recovery. OVA peptide was included as a positive control.
The in vivo cytotoxicity assay was performed by injecting peptide-loaded splenocytes from untreated donor mice into vaccinated mice. Freshly isolated splenocytes were incubated with 5 μM peptide in media (RPMI, 10% Fetal Bovine Serum) for 1 hour at 37 C. Splencoytes were loaded with assay peptide (SLP1_Ib) or control peptide (P53, AIYKKSQHM) separately. […] Cell killing was analyzed after 18 hours by isolating splenocytes from injected mice and comparing the recovery of FarRed and Violet labeled cells by flow cytometry. Specific killing of assay pulsed splenocytes was calculated as follows: […]

mice = test: IFNγ ELISPOT assay of immune responses in mice vaccinated with synthetic long peptides; assay type: in vivo, mouse; details: mice vaccinated with SLP; recall with minimal class I / class II peptides
Experimental: FIG. 9. TGFb-1 vaccine induces robust immune responses. Mice were vaccinated with two different synthetic long peptides (SLPs) and immune responses were analyzed by IFNγ ELISPOT assay. ELISPOT responses for individual mice are shown. Results for control peptides are clearly indicated.
(§3) For the MC38 tumor study, female C56/BL6 mice (Tacomic) were vaccinated with 100 μg of peptide (SEQ ID: 31 or SEQ ID NO: 34) prepared in DMSO and diluted in water to a total volume of 50 μl (per injection) before mixing with an equal volume of Montanide ISA51 VG ST adjuvant to form an emulsion. The vaccine formulation was administered subcutaneously (s.c.) at the tail base on Days 0, 7, and 14. MC38 tumor cells (2e5 per injection) were administered s.c. in the flank on day 0. Every 3 to 4 days, tumors were measured with a Vernier caliper and the tumor volume was calculated using the formula: V=L×W2/2, where V is tumor volume, L is the length of tumor (longer axis), and W is the width of the tumor (shorter axis).
A murine TGFb-1 vaccine was developed based on synthetic long peptides (SLPs) encoding predicted MHC class I and class II epitopes (SEQ ID NOs: 31-36 in Table 1 below). Pre-clinical studies of anti-TGFb therapies often fail to show any impact on tumor growth when administered as a monotherapy.

MC38 tumor = test: Analysis of tumor microenvironment (TME) by flow cytometry in MC38 tumor study; assay type: in vivo, mouse; details: vaccinated Days 0, 7, 14, termination day 21
Experimental: FIG. 10A-D. TGFb-1 vaccine drives derived immune permissive changes in the TME. Tumor weight was compared between groups at experiment termination (day 21). TGFB-1 expression was assayed by latency associated peptide (LAP) staining.
as §3
Freshly isolated tumors were dissociated by collagenase digestion to yield a single cell suspension for flow cytometry analysis. Approximately 1 million cells were stained for analysis by flow cytometry using a Symphony Al flow cytometer (BD, Becton Dickinson) with the following antibodies, anti-mouse LAP BV421 (BD, 565638), anti-mouse CD4 BV605 (BD, 743156) and anti-mouse CD8 BV786 (BD, 563332). Data analysis was performed using FlowJo software.

## DINGFTTGRRGDLATIHGMNRPFLLL [Pep07-1, polypeptide fragment of human TGFb-1, positions 235-260]
[1]
  Positive Donors (out of 14): 5
  Median Spots: 12

## DMPPFFPSENAIPPTFYRPYFRIVREDVSAMEKNASNLV (DMPPFFPSENAIPPTFYRPYFRIVRFDVSAMEKNASNLV) [Pep01-2, homologous polypeptide fragment of human TGFb-2, positions 107-145, reference compound]
[2]
  TGFb-1 selectivity / cross-reactivity of IFNγ ELISPOT immune response to homologous TGFb-2 and TGFb-3 peptides: observed only once
[2]; donors tested with Pep01-1/Pep01-2 peptide combination
  Number of other donors in which cross reactivity was not observed: 7

## DSRDNTLQVDINGFTTGRRGDLATIHGMNRPFLLL [Pep06-1, polypeptide fragment of human TGFb-1, positions 226-260]
[1]
  Positive Donors (out of 14): 5
  Median Spots: 25

## KDISHSIYMFFNTSDIREAVPEPPL [SLP1]
[3]
  Cytotoxic activity (specific killing) toward SLP1_Ib-loaded splenocytes in vaccinated mice: results in cytotoxic activity toward cells loaded with the class I peptide antigen SLP1_Ib
mice
  Immune response by IFNγ ELISPOT in vaccinated mice: recognition of minimal peptides encoding class I and class II epitopes

## LMVETHNEIYDKFKQSTHSIYMFF [Pep03-1, polypeptide fragment of human TGFb-1, positions 112-135]
[1]
  Positive Donors (out of 14): 6
  Median Spots: 16

## LMVETHNEIYDKFKQSTHSIYMFFNTSEL [Pep02-1, polypeptide fragment of human TGFb-1, positions 112-140]
[1]
  Positive Donors (out of 14): 6
  Median Spots: 28

## LMVETHNEIYDKFKQSTHSIYMFFNTSELREAVPEPVLLS [Pep01-1, polypeptide fragment of human TGFb-1, positions 112-151]
[2]
  TGFb-1 selectivity / cross-reactivity of IFNγ ELISPOT immune response to homologous TGFb-2 and TGFb-3 peptides: strong and frequent immune responses in healthy donors that are selective to TGFb-1
[1]
  Positive Donors (out of 14): 9
  Median Spots: 67

## REAVPEPVLLSRAELRLLRL [Pep09-1, polypeptide fragment of human TGFb-1, positions 141-160]
[2]
  TGFb-1 selectivity / cross-reactivity of IFNγ ELISPOT immune response to homologous TGFb-2 and TGFb-3 peptides: strong and frequent immune responses in healthy donors that are selective to TGFb-1
[1]
  Positive Donors (out of 14): 7
  Median Spots: 37

## REAVPEPVLLSRAELRLLRLKLKVEQHVE [Pep11-1, polypeptide fragment of human TGFb-1, positions 141-169]
[1]
  Positive Donors (out of 14): 5
  Median Spots: 14

## SIYMFFNT [SLP1_Ib, TGFb-1 positions 130-137]
[3]
  Cytotoxic activity (specific killing) toward SLP1_Ib-loaded splenocytes in vaccinated mice: cytotoxic activity was higher

## SLDTQYSKVLALYNQHNPGASASP [SLP2]
MC38 tumor
  CD4+ T cell infiltration in TME: significantly enhanced
  CD8+ T cell infiltration in TME: remained unchanged
mice
  Immune response by IFNγ ELISPOT in vaccinated mice: mainly induced class II response

## TGRRGDLATIHGMNRPFLLL [Pep08-1, polypeptide fragment of human TGFb-1, positions 241-260]
[2]
  TGFb-1 selectivity / cross-reactivity of IFNγ ELISPOT immune response to homologous TGFb-2 and TGFb-3 peptides: strong and frequent immune responses in healthy donors that are selective to TGFb-1
[1]
  Positive Donors (out of 14): 7
  Median Spots: 22

## VKRKRIEAIRGQILSKLRLA [Pep12-1, reference compound]
[2]
  TGFb-1 selectivity / cross-reactivity of IFNγ ELISPOT immune response to homologous TGFb-2 and TGFb-3 peptides: induced immune responses that cross-reacted with homologous TGFb-2 and TGFb-3 peptides
[2]; listed as Pep12
  TGFb-1 selectivity / cross-reactivity of IFNγ ELISPOT immune response to homologous TGFb-2 and TGFb-3 peptides: displayed cross-reactivity in all donors that exhibited significant responses to the TGFb-1 homolog

## YDKFKQSTHSIYMFFNTSEL [Pep05-1, polypeptide fragment of human TGFb-1, positions 121-140]
[2]
  TGFb-1 selectivity / cross-reactivity of IFNγ ELISPOT immune response to homologous TGFb-2 and TGFb-3 peptides: strong and frequent immune responses in healthy donors that are selective to TGFb-1
[1]
  Positive Donors (out of 14): 7
  Median Spots: 23

## YDKFKQSTHSIYMFFNTSELREAVPEPVLLS [Pep04-1, polypeptide fragment of human TGFb-1, positions 121-151]
[2]
  TGFb-1 selectivity / cross-reactivity of IFNγ ELISPOT immune response to homologous TGFb-2 and TGFb-3 peptides: strong and frequent immune responses in healthy donors that are selective to TGFb-1
[1]
  Positive Donors (out of 14): 7
  Median Spots: 34

## YMFFNTSELREAVPEPVLLSRAELRLLRLKLKVEQHVE [Pep10-1, polypeptide fragment of human TGFb-1, positions 132-169]
[1]
  Positive Donors (out of 14): 5
  Median Spots: 8
